# According to US20030236306A1, “Stabilized formulations of alpha adrenergic receptor antagonists and the uses thereof” (priority 2002, published 2003):
# Experiments:
# [1] = Effect of buffer anion on stability, pH 3, 60° C.; assay type: physicochemical
# Procedure: (§1) The drug is monitored at a detection wavelength of 232 nm.
# Tightly sealed glass vials containing the test solutions were placed in an oven at 40° C. or 60° C. All samples were stored in the dark. Aliquots were removed at designated time points for HPLC analysis and pH measurement.
# The test buffers included 50 mM sodium phosphate, 50 mM sodium acetate, 50 mM sodium lactate, 50 mM sodium citrate, and 50 mM sodium succinate buffers at pH 3.
# The phosphate and acetate buffers were prepared as described above. The citrate buffer was prepared by adding 9.60 g of citric acid to water, adjusting the pH with 2 N NaOH to pH 3, and bringing the volume to 1 L in a volumetric flask. The lactate buffer was prepared by adding 2.25 g of lactic acid to water, adjusting the pH with 2 N NaOH to pH 3, and bringing the volume to 1L in a volumetric flask. The succinate buffer was prepared by adding 2.95 g succinic acid to water, adjusting the pH with 2 N NaOH to pH 3, and bringing the volume to 1 L in a volumetric flask.
# Measurements of sample pH were done after HPLC analysis.
# [2] = Narrow-range pH-stability profiling at 60° C.; assay type: physicochemical
# Procedure: as §1
# All samples were stored in the dark.
# The phosphate buffers were prepared as previously described. […] Measurement of sample pH was done after HPLC analysis.
# In order to precisely define the most favorable pH, a stronger stressing condition was needed to generate a greater extent of degradation in the lower pH region. For this study, the incubation condition was shifted from 40° C. to 60° C. […] Since the extent of degradation after fourteen (14) days was still less than twenty percent (20%) in most samples, zero-order rate kinetics was used for the degradation curves (concentration versus time). The calculated rate constant was plotted against pH to provide the narrow-range pH-stability profile.
# [3] = system: anesthesia by lignocaine admixed with epinephrine; conditions: 0.5-1.5 mg, Example 1, Table 1 of the '714 patent; cited from earlier work
# [4] = 50 mM Acetate (sodium salt) pH 3.0, 60° C., Day 0
# [5] = 50 mM Acetate (sodium salt) pH 3.0, 60° C., Day 2
# [6] = 50 mM Acetate (sodium salt) pH 3.0, 60° C., Day 7
# [7] = 50 mM Acetate (sodium salt) pH 3.0, 60° C., Day 14
# [8] = 50 mM Phosphate (sodium salt) pH 3.0, 60° C., Day 0
# [9] = 50 mM Phosphate (sodium salt) pH 3.0, 60° C., Day 2
# [10] = 50 mM Phosphate (sodium salt) pH 3.0, 60° C., Day 7
# [11] = 50 mM Phosphate (sodium salt) pH 3.0, 60° C., Day 14
# [12] = Sodium Phosphate Buffer pH 2.0, 60° C., Day 0
# [13] = Sodium Phosphate Buffer pH 2.0, 60° C., Day 2
# [14] = Sodium Phosphate Buffer pH 2.0, 60° C., Day 7
# [15] = Sodium Phosphate Buffer pH 2.0, 60° C., Day 14
# [16] = Sodium Phosphate Buffer pH 2.5, 60° C., Day 0
# [17] = Sodium Phosphate Buffer pH 2.5, 60° C., Day 2
# [18] = Sodium Phosphate Buffer pH 2.5, 60° C., Day 7
# [19] = Sodium Phosphate Buffer pH 2.5, 60° C., Day 14
# [20] = Sodium Phosphate Buffer pH 3.0, 60° C., Day 0
# [21] = Sodium Phosphate Buffer pH 3.0, 60° C., Day 2
# [22] = Sodium Phosphate Buffer pH 3.0, 60° C., Day 7
# [23] = Sodium Phosphate Buffer pH 3.0, 60° C., Day 14
# [24] = Sodium Phosphate Buffer pH 3.4, 60° C., Day 0
# [25] = Sodium Phosphate Buffer pH 3.4, 60° C., Day 2
# [26] = Sodium Phosphate Buffer pH 3.4, 60° C., Day 7
# [27] = Sodium Phosphate Buffer pH 3.4, 60° C., Day 14
# [28] = Sodium Phosphate Buffer pH 4.0, 60° C., Day 0
# [29] = Sodium Phosphate Buffer pH 4.0, 60° C., Day 2
# [30] = Sodium Phosphate Buffer pH 4.0, 60° C., Day 7
# [31] = Sodium Phosphate Buffer pH 4.0, 60° C., Day 14
compound,measurement,setting,value
"Cc1ccc(N(CC2=NCCN2)c2cccc(O)c2)cc1 [Phentolamine, phentolamine]",Phentolamine Concentration,[1]; [4],96 µg/mL
same,Phentolamine Purity,[1]; [4],100 % peak area
same,Phentolamine Concentration,[1]; [5],95 µg/mL
same,Phentolamine Purity,[1]; [5],98 % peak area
same,Phentolamine Concentration,[1]; [6],94 µg/mL
same,Phentolamine Purity,[1]; [6],97 % peak area
same,Phentolamine Concentration,[1]; [7],89 µg/mL
same,Phentolamine Purity,[1]; [7],96 % peak area
same,Phentolamine Concentration,"[1]; 50 mM Citrate (sodium salt) pH 3.0, 60° C., Day 0",93 µg/mL
same,Phentolamine Concentration,"[1]; 50 mM Citrate (sodium salt) pH 3.0, 60° C., Day 2",87 µg/mL
same,Phentolamine Concentration,"[1]; 50 mM Citrate (sodium salt) pH 3.0, 60° C., Day 7",73 µg/mL
same,Phentolamine Concentration,"[1]; 50 mM Citrate (sodium salt) pH 3.0, 60° C., Day 14",62 µg/mL
same,Phentolamine Concentration,"[1]; 50 mM Lactate (sodium salt) pH 3.0, 60° C., Day 0",97 µg/mL
same,Phentolamine Concentration,"[1]; 50 mM Lactate (sodium salt) pH 3.0, 60° C., Day 2",94 µg/mL
same,Phentolamine Concentration,"[1]; 50 mM Lactate (sodium salt) pH 3.0, 60° C., Day 7",91 µg/mL
same,Phentolamine Concentration,"[1]; 50 mM Lactate (sodium salt) pH 3.0, 60° C., Day 14",83 µg/mL
same,Phentolamine Concentration,[1]; [8],96 µg/mL
same,Phentolamine Purity,[1]; [8],99 % peak area
same,Phentolamine Concentration,[1]; [9],93 µg/mL
same,Phentolamine Purity,[1]; [9],97 % peak area
same,Phentolamine Concentration,[1]; [10],91 µg/mL
same,Phentolamine Purity,[1]; [10],95 % peak area
same,Phentolamine Concentration,[1]; [11],84 µg/mL
same,Phentolamine Purity,[1]; [11],91 % peak area
same,Phentolamine Concentration,"[1]; 50 mM Succinate (sodium salt) pH 3.0, 60° C., Day 0",96 µg/mL
same,Phentolamine Concentration,"[1]; 50 mM Succinate (sodium salt) pH 3.0, 60° C., Day 2",88 µg/mL
same,Phentolamine Concentration,"[1]; 50 mM Succinate (sodium salt) pH 3.0, 60° C., Day 7",74 µg/mL
same,Phentolamine Concentration,"[1]; 50 mM Succinate (sodium salt) pH 3.0, 60° C., Day 14",64 µg/mL
same,rank of buffer preference based on amount of phentolamine recovered at the end of the study,"[1]; pH 3, 60° C., 14 days",sodium acetate>no buffer (water with pH adjusted to pH 3)>sodium phosphate>sodium lactate>sodium succinate>sodium citrate
same,pH at which most stable,"[2]; 50 mM sodium phosphate, 60° C., FIG. 2",3.5
same,Phentolamine Concentration,[2]; [12],98 µg/mL
same,Phentolamine Purity,[2]; [12],100 % peak area
same,Phentolamine Concentration,[2]; [13],98 µg/mL
same,Phentolamine Purity,[2]; [13],99 % peak area
same,Phentolamine Concentration,[2]; [14],93 µg/mL
same,Phentolamine Purity,[2]; [14],96 % peak area
same,Phentolamine Concentration,[2]; [15],81 µg/mL
same,Phentolamine Purity,[2]; [15],92 % peak area
same,Phentolamine Concentration,[2]; [16],99 µg/mL
same,Phentolamine Purity,[2]; [16],99 % peak area
same,Phentolamine Concentration,[2]; [17],96 µg/mL
same,Phentolamine Purity,[2]; [17],97 % peak area
same,Phentolamine Concentration,[2]; [18],78 µg/mL
same,Phentolamine Purity,[2]; [18],92 % peak area
same,Phentolamine Concentration,[2]; [19],79 µg/mL
same,Phentolamine Purity,[2]; [19],86 % peak area
same,Phentolamine Concentration,[2]; [20],96 µg/mL
same,Phentolamine Purity,[2]; [20],99 % peak area
same,Phentolamine Concentration,[2]; [21],93 µg/mL
same,Phentolamine Purity,[2]; [21],97 % peak area
same,Phentolamine Concentration,[2]; [22],91 µg/mL
same,Phentolamine Purity,[2]; [22],95 % peak area
same,Phentolamine Concentration,[2]; [23],84 µg/mL
same,Phentolamine Purity,[2]; [23],91 % peak area
same,Phentolamine Concentration,[2]; [24],97 µg/mL
same,Phentolamine Purity,[2]; [24],99 % peak area
same,Phentolamine Concentration,[2]; [25],95 µg/mL
same,Phentolamine Purity,[2]; [25],98 % peak area
same,Phentolamine Concentration,[2]; [26],96 µg/mL
same,Phentolamine Purity,[2]; [26],97 % peak area
same,Phentolamine Concentration,[2]; [27],91 µg/mL
same,Phentolamine Purity,[2]; [27],94 % peak area
same,Phentolamine Concentration,[2]; [28],97 µg/mL
same,Phentolamine Purity,[2]; [28],99 % peak area
same,Phentolamine Concentration,[2]; [29],95 µg/mL
same,Phentolamine Purity,[2]; [29],98 % peak area
same,Phentolamine Concentration,[2]; [30],94 µg/mL
same,Phentolamine Purity,[2]; [30],97 % peak area
same,Phentolamine Concentration,[2]; [31],89 µg/mL
same,Phentolamine Purity,[2]; [31],96 % peak area
same,duration of anesthesia,[3],reduction in the duration of anesthesia with increasing amounts
